Values quoted from earlier work, collected in patent US20230190793A1, “Pharmaceutical Preparation for Use in the Treatment of Systemic Inflammatory Response Syndrome (SIRS)” (priority 2020, published 2023).

Compound	Acid dissociation constant as pKa at 298 K
[O-][Cl+2]([O-])O [chloric acid]	0
OCl [hypochlorous acid]	7.25
peroxochloric acid	approx. 6.2
